Laboratory results as given in ChEMBL document CHEMBL1955804, “Peroxisome proliferator-activated receptors (PPARs) have multiple binding points that accommodate ligands in various conformations: phenylpropanoic acid-type PPAR ligands bind to PPAR in different conformations, depending on the subtype” (J Med Chem, 2012).

Assays:
Type in all cases: functional
[1] = target: T1, Peroxisome proliferator-activated receptor delta (Homo sapiens, UniProt Q03181); assay: Agonist activity at human PPARdelta assessed as transactivation activity
T1 sequence (Q03181 whole entry): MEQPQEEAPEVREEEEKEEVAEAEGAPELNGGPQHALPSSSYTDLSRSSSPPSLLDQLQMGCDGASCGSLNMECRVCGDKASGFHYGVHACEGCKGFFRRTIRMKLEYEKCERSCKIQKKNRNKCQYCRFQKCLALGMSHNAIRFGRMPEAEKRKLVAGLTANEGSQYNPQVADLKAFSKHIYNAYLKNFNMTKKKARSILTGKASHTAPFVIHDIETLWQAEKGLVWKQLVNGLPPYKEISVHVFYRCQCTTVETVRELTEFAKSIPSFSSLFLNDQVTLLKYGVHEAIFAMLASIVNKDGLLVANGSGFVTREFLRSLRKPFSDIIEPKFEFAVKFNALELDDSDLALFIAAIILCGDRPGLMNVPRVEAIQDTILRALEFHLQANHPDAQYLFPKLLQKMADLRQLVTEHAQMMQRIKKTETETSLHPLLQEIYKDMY

[2] = target: T2, Peroxisome proliferator-activated receptor alpha (Homo sapiens, UniProt Q07869); assay: Agonist activity at human PPARalpha assessed as transactivation activity
T2 sequence (Q07869 whole entry): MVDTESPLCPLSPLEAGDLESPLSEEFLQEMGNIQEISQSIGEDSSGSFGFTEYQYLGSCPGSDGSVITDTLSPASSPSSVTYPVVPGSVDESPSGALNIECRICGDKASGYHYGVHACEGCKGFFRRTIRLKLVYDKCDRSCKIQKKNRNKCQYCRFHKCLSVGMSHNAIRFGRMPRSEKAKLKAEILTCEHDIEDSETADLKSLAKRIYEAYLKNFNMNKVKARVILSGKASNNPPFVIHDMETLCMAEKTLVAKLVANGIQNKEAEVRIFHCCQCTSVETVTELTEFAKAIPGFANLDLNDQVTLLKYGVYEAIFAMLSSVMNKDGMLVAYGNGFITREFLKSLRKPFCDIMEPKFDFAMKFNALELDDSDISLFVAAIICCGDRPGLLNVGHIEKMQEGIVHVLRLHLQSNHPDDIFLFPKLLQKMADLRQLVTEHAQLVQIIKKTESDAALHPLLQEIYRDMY

[3] = target: T3, Peroxisome proliferator-activated receptor gamma (Homo sapiens, UniProt P37231); assay: Agonist activity at N-terminal His-tagged human PPARgamma expressed in Escherichia coli BL21 assessed as transactivation activity
T3 sequence (P37231 whole entry): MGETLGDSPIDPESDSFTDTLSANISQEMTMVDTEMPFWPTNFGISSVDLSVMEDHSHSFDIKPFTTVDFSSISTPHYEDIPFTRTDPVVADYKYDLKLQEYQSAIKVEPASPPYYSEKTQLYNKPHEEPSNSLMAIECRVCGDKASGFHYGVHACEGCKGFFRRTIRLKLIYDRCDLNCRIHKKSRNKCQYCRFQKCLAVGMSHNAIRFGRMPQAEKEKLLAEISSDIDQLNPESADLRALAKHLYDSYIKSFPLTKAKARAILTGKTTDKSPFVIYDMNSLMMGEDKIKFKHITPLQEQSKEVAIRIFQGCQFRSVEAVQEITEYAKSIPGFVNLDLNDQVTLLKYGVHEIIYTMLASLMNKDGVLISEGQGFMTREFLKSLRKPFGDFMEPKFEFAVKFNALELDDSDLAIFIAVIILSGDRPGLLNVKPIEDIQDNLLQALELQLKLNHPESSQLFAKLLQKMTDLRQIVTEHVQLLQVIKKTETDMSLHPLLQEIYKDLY

EC50 [1]: 43 nM | EC50 [2]: 12 nM | EC50 [3]: Not Active
Structure (SMILES): CC[C@@H](Cc1ccc(OC)c(CNC(=O)c2ccc3ccc4cccc5ccc2c3c45)c1)C(=O)O
